Results reported in ChEMBL document CHEMBL1201862, “PubChem BioAssay data set” (2004).
Active and inactive are the calls of the source.

What was measured:
[1] = biological target: T1, Corticotropin-releasing factor receptor 2/Corticotropin-releasing factor-binding protein (Homo sapiens, UniProt P24387+Q13324); assay: activators of CRF receptor 2 with binding protein – uHTS hits, confirmation (AID 602473); format: functional; conditions: read-out: EC50_Mean
T1 sequence (Q13324 whole entry): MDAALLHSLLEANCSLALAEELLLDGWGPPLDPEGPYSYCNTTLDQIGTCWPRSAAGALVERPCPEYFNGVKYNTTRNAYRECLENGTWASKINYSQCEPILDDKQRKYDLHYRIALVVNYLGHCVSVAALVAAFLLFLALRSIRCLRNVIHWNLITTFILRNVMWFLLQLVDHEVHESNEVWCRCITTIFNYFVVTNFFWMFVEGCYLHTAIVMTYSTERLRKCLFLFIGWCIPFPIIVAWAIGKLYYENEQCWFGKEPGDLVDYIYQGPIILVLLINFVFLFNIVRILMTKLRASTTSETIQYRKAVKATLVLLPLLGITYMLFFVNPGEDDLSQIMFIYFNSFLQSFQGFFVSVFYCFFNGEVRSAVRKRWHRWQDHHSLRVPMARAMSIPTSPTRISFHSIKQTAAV
T1 sequence (P24387 whole entry): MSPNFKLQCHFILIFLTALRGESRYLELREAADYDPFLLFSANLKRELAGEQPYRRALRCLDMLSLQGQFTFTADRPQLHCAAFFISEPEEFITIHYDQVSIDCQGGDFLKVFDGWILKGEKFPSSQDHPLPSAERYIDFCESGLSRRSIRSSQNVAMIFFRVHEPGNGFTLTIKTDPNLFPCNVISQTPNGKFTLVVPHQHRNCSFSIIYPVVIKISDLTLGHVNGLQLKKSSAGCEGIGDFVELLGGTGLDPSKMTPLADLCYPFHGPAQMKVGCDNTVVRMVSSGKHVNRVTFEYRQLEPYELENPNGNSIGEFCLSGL

[2] = biological target: T1, Corticotropin-releasing factor receptor 2/Corticotropin-releasing factor-binding protein; assay: Dose Response confirmation of uHTS hits for small molecule antagonists of the CRF-binding protein and CRF-R2 receptor complex.; format: functional; conditions: read-out: IC50_Mean
[3] = test system: HeLa; assay: HeLa cell cytotoxicity, dose response, cytotoxicity control for MITF activator project, CellTiter-Glo luminescence, cherry-pick samples (AID 540259); format: functional, cell-based; conditions: Homo sapiens
[4] = cytotoxicity in HEK-293T NF-kB-Luc cells, dose response, cytotoxicity control for B/T-cell NF-kB inhibitor project, cell-based, uHTS hits (AID 489019); format: functional;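 further: IC50 reflects cytotoxicity as loss of cell viability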
[5] = biological target: T2, Microphthalmia-associated transcription factor (Homo sapiens, UniProt O75030); assay: TRPM1 promoter luciferase signal decrease, dose response, MITF inhibitor project, cell-based, SK-MEL-5, cherry-picked, set 3 (AID 493073); format: functional
T2 sequence (O75030 whole entry): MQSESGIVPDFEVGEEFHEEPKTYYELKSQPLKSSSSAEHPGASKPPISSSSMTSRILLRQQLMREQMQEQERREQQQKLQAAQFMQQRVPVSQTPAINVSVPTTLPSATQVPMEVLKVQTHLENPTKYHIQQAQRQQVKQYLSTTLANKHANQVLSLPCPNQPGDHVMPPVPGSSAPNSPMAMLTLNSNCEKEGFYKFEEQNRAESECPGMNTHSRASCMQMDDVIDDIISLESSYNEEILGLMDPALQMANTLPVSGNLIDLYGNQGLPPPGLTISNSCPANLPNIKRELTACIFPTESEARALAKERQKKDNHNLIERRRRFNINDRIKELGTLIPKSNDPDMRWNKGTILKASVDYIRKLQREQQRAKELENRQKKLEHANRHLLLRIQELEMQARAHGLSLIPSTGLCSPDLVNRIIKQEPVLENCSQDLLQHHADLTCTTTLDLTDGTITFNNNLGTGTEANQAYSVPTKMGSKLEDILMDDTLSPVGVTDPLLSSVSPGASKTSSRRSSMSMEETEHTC

[6] = C. albicans growth with fluconazole, confirmation, fluorescence, retest (AID 2467); format: functional, cell-based
[7] = test system: Jurkat; assay: antigen receptor-induced NF-kB inhibitors, dose response, Jurkat, luciferase reporter, luminescence, B- and T-cell (AID 489004); format: functional, cell-based; conditions: Homo sapiens;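 further: NF-kB luciferase reporter Jurkat cells stimulated with PMA plus ionomycin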
[8] = NIH-3T3 fibroblast cytotoxicity, dose response, cytotoxicity control, cell-based, fluorescence, Alamar Blue, secondary assay (AID 2327); format: functional;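 further: NIH-3T3 mouse fibroblasts cultured with fluconazole at 8 µg/mL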
[9] = test system: A-375; assay: MITF: Counter assay: A375 proliferation Measured in Cell-Based System Using Plate Reader - 2084-03_Inhibitor_Dose_DryPowder_Activity. [Related pubchem assays (depositor defined):AID488944]; format: functional; conditions: Homo sapiens
[10] = test system: INS1; assay: beta cell apoptosis inhibitors, cytokine rescue, dose response, luminescence, retest (AID 449756); format: functional, cell-based; conditions: Rattus norvegicus;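 further: cell death triggered by IL-1 beta plus TNF-alpha plus IFN-gamma mixture; protective hits raise ATP signal compared with cytokine alone wells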
[11] = biological target: Induced myeloid leukemia cell differentiation protein Mcl-1 (Homo sapiens, UniProt Q07820); format: functional
Sequence of Induced myeloid leukemia cell differentiation protein Mcl-1 (Q07820 whole entry): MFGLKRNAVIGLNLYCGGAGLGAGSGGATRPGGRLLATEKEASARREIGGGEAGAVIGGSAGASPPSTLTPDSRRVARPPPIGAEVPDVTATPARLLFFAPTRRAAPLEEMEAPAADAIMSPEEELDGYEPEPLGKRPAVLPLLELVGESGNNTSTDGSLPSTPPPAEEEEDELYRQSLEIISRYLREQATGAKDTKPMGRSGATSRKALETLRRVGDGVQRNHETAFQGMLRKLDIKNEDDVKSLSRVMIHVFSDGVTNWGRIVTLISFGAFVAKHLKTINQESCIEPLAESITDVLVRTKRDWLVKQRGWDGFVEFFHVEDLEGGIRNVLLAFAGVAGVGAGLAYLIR

[12] = biological target: Dual specificity tyrosine-phosphorylation-regulated kinase 1A (Rattus norvegicus, UniProt Q63470); format: biochemical, Homo sapiens
[13] = biological target: FAD-linked sulfhydryl oxidase ALR (Homo sapiens, UniProt P55789); assay: inhibitors of human ALR sulfhydryl oxidase, dose response, biochemical, H2O2 detection, luminescence, cherry-pick (AID 493248)
Sequence of FAD-linked sulfhydryl oxidase ALR (P55789 whole entry): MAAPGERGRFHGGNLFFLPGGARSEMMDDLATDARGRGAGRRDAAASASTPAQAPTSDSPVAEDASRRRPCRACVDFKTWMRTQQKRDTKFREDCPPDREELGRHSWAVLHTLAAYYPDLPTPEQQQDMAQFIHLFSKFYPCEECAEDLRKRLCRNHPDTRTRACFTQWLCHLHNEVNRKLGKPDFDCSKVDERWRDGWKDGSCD

[14] = biological target: Histone-lysine N-methyltransferase NSD2 (Homo sapiens, UniProt O96028); format: biochemical
Sequence of Histone-lysine N-methyltransferase NSD2 (O96028 whole entry): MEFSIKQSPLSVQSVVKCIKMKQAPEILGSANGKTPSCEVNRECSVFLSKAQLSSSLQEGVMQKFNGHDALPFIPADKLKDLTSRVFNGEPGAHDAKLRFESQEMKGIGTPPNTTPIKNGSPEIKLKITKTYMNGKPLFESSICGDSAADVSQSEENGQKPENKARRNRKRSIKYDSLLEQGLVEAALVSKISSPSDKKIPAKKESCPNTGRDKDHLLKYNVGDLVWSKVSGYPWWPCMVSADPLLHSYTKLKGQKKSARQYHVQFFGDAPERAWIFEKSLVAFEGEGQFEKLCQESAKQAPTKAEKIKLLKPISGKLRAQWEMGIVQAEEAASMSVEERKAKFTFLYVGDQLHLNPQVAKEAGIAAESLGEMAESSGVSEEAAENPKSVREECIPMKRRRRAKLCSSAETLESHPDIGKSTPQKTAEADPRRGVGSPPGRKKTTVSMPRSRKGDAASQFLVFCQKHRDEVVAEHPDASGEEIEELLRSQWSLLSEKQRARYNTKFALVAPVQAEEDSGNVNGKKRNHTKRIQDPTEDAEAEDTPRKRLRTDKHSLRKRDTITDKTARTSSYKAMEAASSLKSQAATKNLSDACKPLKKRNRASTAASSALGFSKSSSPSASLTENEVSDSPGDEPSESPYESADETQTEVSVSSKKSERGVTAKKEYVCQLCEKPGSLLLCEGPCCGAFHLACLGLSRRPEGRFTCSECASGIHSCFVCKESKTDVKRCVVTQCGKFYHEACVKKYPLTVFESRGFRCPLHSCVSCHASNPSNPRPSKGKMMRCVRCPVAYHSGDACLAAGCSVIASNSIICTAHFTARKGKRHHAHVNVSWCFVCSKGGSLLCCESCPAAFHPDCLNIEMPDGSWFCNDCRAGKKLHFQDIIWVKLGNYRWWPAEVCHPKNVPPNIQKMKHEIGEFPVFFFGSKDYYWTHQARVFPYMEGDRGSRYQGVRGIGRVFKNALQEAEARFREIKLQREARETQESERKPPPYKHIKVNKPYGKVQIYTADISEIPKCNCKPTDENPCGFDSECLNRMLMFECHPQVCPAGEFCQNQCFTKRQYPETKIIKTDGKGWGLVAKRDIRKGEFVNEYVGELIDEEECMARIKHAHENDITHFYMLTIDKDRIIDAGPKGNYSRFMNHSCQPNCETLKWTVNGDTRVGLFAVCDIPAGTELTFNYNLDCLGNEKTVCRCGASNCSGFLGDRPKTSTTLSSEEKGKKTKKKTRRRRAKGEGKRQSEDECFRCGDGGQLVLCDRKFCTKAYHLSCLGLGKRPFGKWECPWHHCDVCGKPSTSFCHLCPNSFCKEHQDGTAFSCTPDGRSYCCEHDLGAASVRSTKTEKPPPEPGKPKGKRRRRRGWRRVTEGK

[15] = test system: HEK293; assay: SAR Analysis of small molecule inhibitors of T-cell specific antigen receptor-induced NF-kB activation in a HEK-293T cell line using a luminescence assay - Set 2. [Related pubchem assays (depositor defined):AID435003, AID435012, AID489026]; format: functional, cell-based; conditions: Homo sapiens
[16] = test system: Jurkat; assay: SAR Analysis of small molecule inhibitors of T-cell specific antigen receptor-induced NF-kB activation in a Jurkat cell line using a luminescence assay - Set 2. [Related pubchem assays (depositor defined):AID435003, AID435012, AID465]; format: functional, cell-based; conditions: Homo sapiens
[17] = test system: HEK293; assay: PMA/Ionomycin induced NF-kB luciferase assay in 293- NF-kB-Luc stable cells. [Related pubchem assays: 1299, 1270, 1295, 1375, 1287, 1281, 1293, 1291, 1289, 1280, 465, 1364, 1282, 1372, 1365, 1370, 1367, 1366, 1269, 1373, 1292, 1290, 1302, 1371, 1283, 1271, 1294, 1374, 1368, 1369 ]; format: functional, cell-based; conditions: Homo sapiens
[18] = test system: HEK293; assay: inhibitors of LMP1-driven NF-kB reporter, dose response, cell-based, HEK293, luciferase, cherry-pick (AID 588343); format: functional; conditions: Homo sapiens
[19] = test system: HEK293; assay: cytotoxicity in HEK293T NF-kB-Luc cells, SAR follow-up, cytotoxicity control for NF-kB activator project, cell-based, resazurin fluorescence (AID 493251); format: functional
[20] = cytotoxicity in HEK-293T cells, dose response, cytotoxicity control for BCR NF-kB inhibitor project, luminescence, B-cell screen hits (AID 489021); format: functional, cell-based;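 further: HEK-293T cells carrying an NF-kB luciferase reporter; cells exposed to compound for about 14 hours before viability readout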
[21] = test system: HEK293; assay: Cytotoxicity assay in HEK293 cells. [Related pubchem assays (depositor defined):AID1266, AID1269, AID1270, AID1271, AID1280, AID1281, AID1282, AID1283, AID1287, AID1289, AID1290, AID1291, AID1292, AID1293, AID1294, AID1295, AID1299, AID1302, AID1364, AID1365, AID1366, AID1367, AID1369, AID1370, AID1371, AID1372, AID1373, AID1374, AID1375, AID1384 …; format: functional, cell-based; conditions: Homo sapiens
[22] = biological target: Luciferin 4-monooxygenase (Photinus pyralis, UniProt P08659); assay: In vitro luciferase assay using purified luciferase. [Related pubchem assays: 1299, 1270, 1295, 1375, 1287, 1281, 1293, 1291, 1289, 1280, 465, 1364, 1282, 1372, 1365, 1370, 1367, 1366, 1266, 1373, 1292, 1290, 1302, 1371, 1283, 1271, 1294, 1374, 1368, 1369 ]
Sequence of Luciferin 4-monooxygenase (P08659 whole entry): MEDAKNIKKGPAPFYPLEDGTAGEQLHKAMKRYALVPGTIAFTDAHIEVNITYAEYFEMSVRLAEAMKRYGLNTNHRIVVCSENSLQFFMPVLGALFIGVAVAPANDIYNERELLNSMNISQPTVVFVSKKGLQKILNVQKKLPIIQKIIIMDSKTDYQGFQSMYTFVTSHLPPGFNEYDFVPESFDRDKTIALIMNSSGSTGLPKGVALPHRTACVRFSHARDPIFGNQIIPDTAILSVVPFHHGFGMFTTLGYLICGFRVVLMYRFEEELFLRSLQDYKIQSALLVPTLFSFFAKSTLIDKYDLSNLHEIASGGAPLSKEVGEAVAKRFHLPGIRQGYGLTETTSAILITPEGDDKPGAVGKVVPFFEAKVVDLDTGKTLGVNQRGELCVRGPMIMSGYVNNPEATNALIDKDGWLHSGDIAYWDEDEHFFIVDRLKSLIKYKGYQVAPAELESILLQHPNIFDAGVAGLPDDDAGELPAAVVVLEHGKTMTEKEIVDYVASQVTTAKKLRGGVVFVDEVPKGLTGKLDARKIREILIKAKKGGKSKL

[23] = biological target: ATP-dependent molecular chaperone HSP82 (Candida albicans (strain WO-1) (Yeast), UniProt C4YTQ8); assay: loss of DOC-induced GRE-beta-galactosidase reporter signal, dose response, Hsp90 inhibitor project, S. cerevisiae, luminescence (AID 2400); format: functional, cell-based;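 further: beta-galactosidase luminescence from glucocorticoid response element reporter as proxy for Hsp90 function; inhibitor potency where signal loss means Hsp90 inhibition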
Sequence of ATP-dependent molecular chaperone HSP82 (C4YTQ8 whole entry): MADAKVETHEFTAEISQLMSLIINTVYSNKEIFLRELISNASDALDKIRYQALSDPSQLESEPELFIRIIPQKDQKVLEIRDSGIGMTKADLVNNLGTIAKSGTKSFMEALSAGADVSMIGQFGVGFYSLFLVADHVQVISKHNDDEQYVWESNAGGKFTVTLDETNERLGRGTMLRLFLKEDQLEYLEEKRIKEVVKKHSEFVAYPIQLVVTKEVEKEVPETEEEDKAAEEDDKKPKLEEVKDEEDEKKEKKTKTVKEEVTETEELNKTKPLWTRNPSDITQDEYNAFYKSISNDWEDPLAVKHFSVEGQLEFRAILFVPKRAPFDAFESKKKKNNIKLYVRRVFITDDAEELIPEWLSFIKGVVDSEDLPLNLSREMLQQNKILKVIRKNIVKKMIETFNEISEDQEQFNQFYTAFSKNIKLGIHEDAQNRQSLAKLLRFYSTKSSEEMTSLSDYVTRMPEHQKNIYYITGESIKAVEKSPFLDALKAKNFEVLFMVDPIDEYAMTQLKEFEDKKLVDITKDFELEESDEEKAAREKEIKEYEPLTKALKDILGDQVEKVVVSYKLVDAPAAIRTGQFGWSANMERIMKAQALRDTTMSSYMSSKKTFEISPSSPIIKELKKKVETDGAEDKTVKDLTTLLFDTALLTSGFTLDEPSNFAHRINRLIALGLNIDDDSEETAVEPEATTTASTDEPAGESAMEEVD

[24] = biological target: Serine/threonine-protein phosphatase (Candida dubliniensis (strain CD36 / CBS 7987 / NCPF 3949 / NRRLY-17841) (Yeast), UniProt B9W6M3); assay: calcineurin pathway inhibitors in yeast reporter, dose response, S. cerevisiae, CDRE-lacZ, luminescence, secondary (AID 2388); format: functional, cell-based;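 further: yeast reporter cells carrying a calcineurin-responsive lacZ construct stimulated with calcium chloride; luminescent beta-galactosidase reporter signal in whole cells rather than isolated phosphatase activity; potency for inhibition where a drop in reporter signal means calcineurin blockade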
Sequence of Serine/threonine-protein phosphatase (B9W6M3 whole entry, the tested form may be a part): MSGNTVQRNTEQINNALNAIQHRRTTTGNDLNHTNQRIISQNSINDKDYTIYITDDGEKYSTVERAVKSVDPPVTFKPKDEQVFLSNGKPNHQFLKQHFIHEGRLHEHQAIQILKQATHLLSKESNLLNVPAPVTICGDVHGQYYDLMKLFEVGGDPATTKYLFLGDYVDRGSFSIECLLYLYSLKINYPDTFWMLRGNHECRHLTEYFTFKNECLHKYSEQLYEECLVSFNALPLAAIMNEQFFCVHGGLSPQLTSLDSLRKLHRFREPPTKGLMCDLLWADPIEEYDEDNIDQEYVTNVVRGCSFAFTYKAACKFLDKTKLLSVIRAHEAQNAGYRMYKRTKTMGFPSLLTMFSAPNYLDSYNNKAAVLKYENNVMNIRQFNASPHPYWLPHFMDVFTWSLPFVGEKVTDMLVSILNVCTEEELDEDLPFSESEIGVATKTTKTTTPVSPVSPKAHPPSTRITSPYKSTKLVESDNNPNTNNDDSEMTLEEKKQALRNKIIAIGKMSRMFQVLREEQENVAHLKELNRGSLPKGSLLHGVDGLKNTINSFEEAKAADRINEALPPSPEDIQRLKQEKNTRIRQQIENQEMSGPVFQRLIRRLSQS

[25] = luciferase reporter signal reduction – luminescence, H4-C neuroglioblastoma cells, dose response (AID 2458); format: functional, cell-based;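 further: H4 neuroglioblastoma cells stably carrying a luciferase reporter gene fusion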
[26] = biological target: T3, Intestinal-type alkaline phosphatase (Homo sapiens, UniProt P09923); assay: human IAP activators, dose response, biochemical, luminescent, uHTS hits, set 2 (AID 488817); format: functional;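 further: potency of activators that raise enzyme activity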
T3 sequence (P09923 whole entry): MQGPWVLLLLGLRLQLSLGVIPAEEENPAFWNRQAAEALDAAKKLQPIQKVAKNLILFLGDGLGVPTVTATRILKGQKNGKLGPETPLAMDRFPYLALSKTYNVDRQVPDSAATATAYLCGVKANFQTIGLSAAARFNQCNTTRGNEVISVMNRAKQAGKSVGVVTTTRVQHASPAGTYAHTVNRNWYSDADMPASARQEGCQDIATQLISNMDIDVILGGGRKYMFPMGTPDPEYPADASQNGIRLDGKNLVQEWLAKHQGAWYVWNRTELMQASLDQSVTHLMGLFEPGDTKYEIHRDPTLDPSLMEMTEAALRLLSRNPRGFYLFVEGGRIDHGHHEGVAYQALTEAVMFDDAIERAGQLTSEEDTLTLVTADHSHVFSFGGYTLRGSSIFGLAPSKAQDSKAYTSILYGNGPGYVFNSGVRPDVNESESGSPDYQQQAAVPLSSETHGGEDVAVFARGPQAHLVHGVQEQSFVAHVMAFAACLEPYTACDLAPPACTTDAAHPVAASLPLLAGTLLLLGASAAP

[27] = biological target: Intestinal-type alkaline phosphatase (Mus musculus, UniProt P24822); assay: PubChem AID 488874; format: functional
Sequence of Intestinal-type alkaline phosphatase (Mus musculus, UniProt P24822) (P24822 whole entry): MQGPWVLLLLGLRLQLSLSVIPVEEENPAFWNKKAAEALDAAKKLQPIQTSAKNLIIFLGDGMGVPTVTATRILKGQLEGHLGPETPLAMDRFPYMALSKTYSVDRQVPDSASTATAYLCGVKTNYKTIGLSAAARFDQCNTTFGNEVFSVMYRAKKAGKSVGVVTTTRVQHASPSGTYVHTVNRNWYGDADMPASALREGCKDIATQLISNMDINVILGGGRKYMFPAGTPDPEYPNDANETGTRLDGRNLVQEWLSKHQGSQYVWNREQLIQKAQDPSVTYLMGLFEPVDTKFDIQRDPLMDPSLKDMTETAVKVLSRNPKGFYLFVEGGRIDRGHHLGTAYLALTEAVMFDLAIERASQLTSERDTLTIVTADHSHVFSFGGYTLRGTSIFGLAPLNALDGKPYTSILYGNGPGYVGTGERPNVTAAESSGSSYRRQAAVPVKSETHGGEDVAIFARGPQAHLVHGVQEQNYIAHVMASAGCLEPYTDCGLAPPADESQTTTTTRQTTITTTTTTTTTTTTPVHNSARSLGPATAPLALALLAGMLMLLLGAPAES

[28] = biological target: Exodeoxyribonuclease V (Escherichia coli (strain K12), UniProt P04993+P07648+P08394); assay: E. coli RecBCD inhibitors, dose response, counter-screen for AddAB inhibitor project, absorbance, V66 E. coli, mutant T4 phage (AID 492957); format: functional, cell-based, Escherichia coli str. K-12 substr. MG1655
[29] = biological target: T4, Alkaline phosphatase, tissue-nonspecific isozyme (Homo sapiens, UniProt P05186); assay: TNAP enzyme activators, dose response, selectivity assay for human IAP activator project, biochemical, TNAP isozyme, human IAP uHTS hits (AID 488886); format: functional;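 further: potency of compounds raising TNAP activity as a selectivity check on IAP activators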
T4 sequence (P05186 whole entry): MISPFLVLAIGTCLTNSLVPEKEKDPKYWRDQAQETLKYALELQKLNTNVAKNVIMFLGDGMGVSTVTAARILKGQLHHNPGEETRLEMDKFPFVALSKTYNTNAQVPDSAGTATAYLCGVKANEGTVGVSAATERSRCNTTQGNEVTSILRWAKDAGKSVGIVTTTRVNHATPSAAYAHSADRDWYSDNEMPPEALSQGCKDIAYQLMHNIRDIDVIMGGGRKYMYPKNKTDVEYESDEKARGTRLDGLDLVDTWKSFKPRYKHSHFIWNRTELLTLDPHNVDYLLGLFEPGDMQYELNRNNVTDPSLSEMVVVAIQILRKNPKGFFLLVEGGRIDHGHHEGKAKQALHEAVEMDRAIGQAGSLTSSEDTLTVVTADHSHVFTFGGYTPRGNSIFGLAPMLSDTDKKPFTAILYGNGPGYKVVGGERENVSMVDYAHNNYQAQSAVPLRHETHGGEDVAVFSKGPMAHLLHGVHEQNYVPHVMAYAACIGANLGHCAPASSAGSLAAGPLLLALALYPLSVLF

[30] = inhibitors of SNCA 5'UTR-driven translation, confirmation, luminescence, H4 neuroglioblastoma cells, dose confirmation (AID 2454); format: functional, cell-based;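 further: H4 neuroglioblastoma cells carrying an alpha-synuclein 5'UTR luciferase reporter; potency for inhibition of the luciferase signal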
[31] = inhibitors of firefly luciferase expression or activity, dose response, H4 neuroglioma cells, luminescence (AID 1990); format: functional, cell-based
[32] = Counterscreen for AddAB inhibitors: absorbance-based bacterial cell-based high throughput dose response assay for inhibitors of bacterial viability. [Related pubchem assays (depositor defined):AID435030, AID449728, AID449731, AID488942, AID488955, AID488956]; format: functional
[33] = cells; format: functional, cell-based
[34] = biological target: T3, Intestinal-type alkaline phosphatase; assay: human intestinal alkaline phosphatase activators, dose response, biochemical, luminescence, uHTS hits (AID 463120); format: functional
[35] = inhibitors of SNCA 5'UTR-driven reporter translation, confirmation, H4 neuroglioma cells, luminescence (AID 1988); format: functional, cell-based

COc1ccc2c(c1OC)C(=O)N1c3ccccc3COC21 (stereo not drawn)
inactive: EC50 [1] > 53 µM | IC50 [2] > 47.1 µM | AC50 [3] > 350 µM

COc1ccc(NC(=O)c2ccc3[nH]c(C)c(C)c3c2)cc1
active: AC50 [3] 47.9 µM

CCOc1ccc(-[n+]2c(-c3ccc(OC)cc3)cn3c2CCCCC3)cc1
active: AC50 [5] 2.13 µM | EC50 [6] 0.48 µM | AC50 [9] 48 µM | AC50 [10] 0.312 µM
inactive: IC50 [4] > 80 µM | IC50 [7] > 80 µM | EC50 [8] > 150 µM

O=C1NC(=O)/C(=C\c2ccc(O)cc2O)S1
active: IC50 [11] 2.2 µM | AC50 [12] 0.56 µM | AC50 [13] 1.78 µM | AC50 [14] 2.07 µM

CCOc1ccc(-c2nc(CSCC(=O)NCc3ccco3)c(C)o2)cc1
inactive: IC50 [15] 25.2 µM | IC50 [16] > 79 µM | IC50 ([19]; Homo sapiens, HEK293) 54.4 µM | IC50 ([19]; hek293) 53.1 µM | IC50 [20] > 80 µM | EC50 [21] 20.3 µM
active: AC50 [18] 32 µM
> 8 µM (not active): EC50 [22]
15.4 µM (not active): EC50 [17]

CCN(CC)C(=O)CCc1nc(-c2ccc(C(C)(C)C)cc2)no1
active: IC50 [15] 19.7 µM
inactive: IC50 [16] 47.8 µM | IC50 ([19]; Homo sapiens, HEK293) 54.7 µM | IC50 ([19]; hek293) 51.5 µM

CCCCCCc1c(C)nc(-n2[nH]c(C)c(CCO)c2=O)[nH]c1=O
active: EC50 [6] 0.635 µM
inactive: EC50 [23] > 160 µM | EC50 [24] > 180 µM | EC50 [8] > 160 µM

O=c1c2ccccc2nc(N/N=C/c2c(O)ccc3ccccc23)n1O
inactive: EC50 [24] > 180 µM | IC50 [28] > 119 µM | EC50 [29] > 100 µM | EC50 [8] > 150 µM | IC50 [32] > 119 µM
active: EC50 [25] 0.601 µM | EC50 [26] 31 µM | EC50 [23] 18.1 µM | IC50 [27] 75.3 µM | EC50 [6] 0.212 µM | EC50 [31] < 0.1 µM | AC50 [10] 1.23 µM | EC50 [33] 1.26 µM | EC50 [34] 13.6 µM | EC50 [35] < 0.1 µM
inconclusive: EC50 [30] > 12 µM
